We go through 31 molecules from ChEMBL document CHEMBL5042489, “Inhibitors of the Hippo Pathway Kinases STK3/MST2 and STK4/MST1 Have Utility for the Treatment of Acute Myeloid Leukemia” (J Med Chem, 2022).

Active and inactive are the calls of the source. No cut-off for these calls is given here.

The target in data set [1] is T1, Serine/threonine-protein kinase 3 (Homo sapiens, UniProt Q13188).
T1 sequence (Q13188 whole entry): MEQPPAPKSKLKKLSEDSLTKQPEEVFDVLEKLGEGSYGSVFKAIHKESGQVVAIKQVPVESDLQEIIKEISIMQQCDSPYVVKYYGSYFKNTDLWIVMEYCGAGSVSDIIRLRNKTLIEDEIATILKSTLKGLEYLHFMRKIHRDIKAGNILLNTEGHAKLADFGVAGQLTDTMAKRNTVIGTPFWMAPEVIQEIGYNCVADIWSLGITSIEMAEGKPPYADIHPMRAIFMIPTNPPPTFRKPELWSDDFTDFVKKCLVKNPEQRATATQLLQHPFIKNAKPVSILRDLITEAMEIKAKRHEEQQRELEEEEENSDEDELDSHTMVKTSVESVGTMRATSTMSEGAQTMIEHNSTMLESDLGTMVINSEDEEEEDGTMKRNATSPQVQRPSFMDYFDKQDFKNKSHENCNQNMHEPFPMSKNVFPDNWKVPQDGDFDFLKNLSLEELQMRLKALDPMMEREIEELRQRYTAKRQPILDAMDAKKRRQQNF
Description: Displacement of K5 tracer from full length C-terminal NanoLuc fused human STK3 expressed in HEK293T cells incubated for 2 hrs by NanoBRET assay

For data set [2], the target named is Leucine-rich repeat serine/threonine-protein kinase 2 (Homo sapiens, UniProt Q5S007). As to the kind of experiment: Displacement of K5 tracer from full length C-terminal NanoLuc fused human LRRK2 expressed in HEK293T cells incubated for 2 hrs by NanoBRET assay. The format is cell-based. Background: In BRET a luciferase serves as donor, and the signal depends on an acceptor being close.

A short description of data set [3]: Drug concentration in C57BL/6 mouse plasma at 20 mg/kg, ip measured after 30 mins by LC-MS/MS analysis. It is filed as ADME, organism-based.
Data set [4] addresses T2, Serine/threonine-protein kinase 4 (Homo sapiens, UniProt Q13043).
T2 sequence (Q13043 whole entry): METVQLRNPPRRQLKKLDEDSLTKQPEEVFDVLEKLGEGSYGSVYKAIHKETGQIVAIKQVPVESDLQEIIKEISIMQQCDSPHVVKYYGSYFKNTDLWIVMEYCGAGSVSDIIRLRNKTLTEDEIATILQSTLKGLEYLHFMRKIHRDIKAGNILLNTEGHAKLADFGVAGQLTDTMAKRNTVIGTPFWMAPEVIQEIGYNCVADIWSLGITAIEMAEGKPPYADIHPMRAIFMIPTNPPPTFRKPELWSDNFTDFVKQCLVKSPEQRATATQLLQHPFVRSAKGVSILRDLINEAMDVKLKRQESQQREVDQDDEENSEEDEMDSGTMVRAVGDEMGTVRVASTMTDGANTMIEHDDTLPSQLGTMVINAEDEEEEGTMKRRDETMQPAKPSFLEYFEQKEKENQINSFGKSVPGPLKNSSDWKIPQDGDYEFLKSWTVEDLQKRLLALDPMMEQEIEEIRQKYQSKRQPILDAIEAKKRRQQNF
As to the kind of experiment: Binding affinity to recombinant N-terminal His6-tagged human STK4 (43 to 431 residues) expressed in Escherichia coli assessed as dissociation constant by isothermal titration calorimetry. (Isothermal titration calorimetry measures the heat released or taken up as one component is titrated into another.)

Data set [5] concerns the target T1, Serine/threonine-protein kinase 3. Nature of the data set: Binding affinity to recombinant N-terminal His6-tagged human STK3 (18 to 311 residues) expressed in Escherichia coli assessed as dissociation constant by isothermal titration calorimetry.
Data set [6] deals with T2, Serine/threonine-protein kinase 4.
Description: Displacement of K5 tracer from full length C-terminal NanoLuc fused human STK4 expressed in HEK293T cells incubated for 2 hrs by NanoBRET assay
In data set [7] the target is T1, Serine/threonine-protein kinase 3. This is another data set of the same source.
Data set [8] deals with T2, Serine/threonine-protein kinase 4. This is another data set of the same source.
For data set [9], the target named is T3, Serine/threonine-protein kinase 4 (Homo sapiens) (UniProt Q13043).
T3 sequence (whole entry): T2 sequence (Q13043 whole entry)
Particulars: dose 20.0 µM.
Description: Inhibition of recombinant N-terminal His6-tagged human STK4 (43 to 431 residues) expressed in Escherichia coli assessed as melting temperature at 20 uM by thermal shift assay (Rvb = 55 degreeC)

The target of data set [10] is T4, Serine/threonine-protein kinase 3 (Homo sapiens) (UniProt Q13188).
T4 sequence (whole entry): T1 sequence (Q13188 whole entry)
Nature of the data set: Inhibition of STK3 in HEK293 cells assessed as increase in YAP/TAZ-TEAD activity at 10 uM incubated for 48 hrs by Dual-Glo luciferase assay. It is filed as cell-based.

Data set [11] deals with T2, Serine/threonine-protein kinase 4. This is another data set of the same source.
For data set [12], the target named is T4, Serine/threonine-protein kinase 3 (Homo sapiens). As to the kind of experiment: Inhibition of recombinant N-terminal His6-tagged human STK3 (18 to 311 residues) expressed in Escherichia coli assessed as melting temperature at 20 uM by thermal shift assay.
Substrate in data set [13]: Clc1cccc(-c2c[nH]c3ncnc(N4CCOCC4)c23)c1
Description: Inhibition of recombinant N-terminal His6-tagged human STK4 (43 to 431 residues) expressed in Escherichia coli using CSox-peptide as substrate preincubated for 15 mins followed by substrate addition measured every 2 mins upto 150 mins by microplate reader
Particulars: Homo sapiens; time 165.0 min.

Sequence of Leucine-rich repeat serine/threonine-protein kinase 2 (Q5S007 whole entry, the tested form may be a part): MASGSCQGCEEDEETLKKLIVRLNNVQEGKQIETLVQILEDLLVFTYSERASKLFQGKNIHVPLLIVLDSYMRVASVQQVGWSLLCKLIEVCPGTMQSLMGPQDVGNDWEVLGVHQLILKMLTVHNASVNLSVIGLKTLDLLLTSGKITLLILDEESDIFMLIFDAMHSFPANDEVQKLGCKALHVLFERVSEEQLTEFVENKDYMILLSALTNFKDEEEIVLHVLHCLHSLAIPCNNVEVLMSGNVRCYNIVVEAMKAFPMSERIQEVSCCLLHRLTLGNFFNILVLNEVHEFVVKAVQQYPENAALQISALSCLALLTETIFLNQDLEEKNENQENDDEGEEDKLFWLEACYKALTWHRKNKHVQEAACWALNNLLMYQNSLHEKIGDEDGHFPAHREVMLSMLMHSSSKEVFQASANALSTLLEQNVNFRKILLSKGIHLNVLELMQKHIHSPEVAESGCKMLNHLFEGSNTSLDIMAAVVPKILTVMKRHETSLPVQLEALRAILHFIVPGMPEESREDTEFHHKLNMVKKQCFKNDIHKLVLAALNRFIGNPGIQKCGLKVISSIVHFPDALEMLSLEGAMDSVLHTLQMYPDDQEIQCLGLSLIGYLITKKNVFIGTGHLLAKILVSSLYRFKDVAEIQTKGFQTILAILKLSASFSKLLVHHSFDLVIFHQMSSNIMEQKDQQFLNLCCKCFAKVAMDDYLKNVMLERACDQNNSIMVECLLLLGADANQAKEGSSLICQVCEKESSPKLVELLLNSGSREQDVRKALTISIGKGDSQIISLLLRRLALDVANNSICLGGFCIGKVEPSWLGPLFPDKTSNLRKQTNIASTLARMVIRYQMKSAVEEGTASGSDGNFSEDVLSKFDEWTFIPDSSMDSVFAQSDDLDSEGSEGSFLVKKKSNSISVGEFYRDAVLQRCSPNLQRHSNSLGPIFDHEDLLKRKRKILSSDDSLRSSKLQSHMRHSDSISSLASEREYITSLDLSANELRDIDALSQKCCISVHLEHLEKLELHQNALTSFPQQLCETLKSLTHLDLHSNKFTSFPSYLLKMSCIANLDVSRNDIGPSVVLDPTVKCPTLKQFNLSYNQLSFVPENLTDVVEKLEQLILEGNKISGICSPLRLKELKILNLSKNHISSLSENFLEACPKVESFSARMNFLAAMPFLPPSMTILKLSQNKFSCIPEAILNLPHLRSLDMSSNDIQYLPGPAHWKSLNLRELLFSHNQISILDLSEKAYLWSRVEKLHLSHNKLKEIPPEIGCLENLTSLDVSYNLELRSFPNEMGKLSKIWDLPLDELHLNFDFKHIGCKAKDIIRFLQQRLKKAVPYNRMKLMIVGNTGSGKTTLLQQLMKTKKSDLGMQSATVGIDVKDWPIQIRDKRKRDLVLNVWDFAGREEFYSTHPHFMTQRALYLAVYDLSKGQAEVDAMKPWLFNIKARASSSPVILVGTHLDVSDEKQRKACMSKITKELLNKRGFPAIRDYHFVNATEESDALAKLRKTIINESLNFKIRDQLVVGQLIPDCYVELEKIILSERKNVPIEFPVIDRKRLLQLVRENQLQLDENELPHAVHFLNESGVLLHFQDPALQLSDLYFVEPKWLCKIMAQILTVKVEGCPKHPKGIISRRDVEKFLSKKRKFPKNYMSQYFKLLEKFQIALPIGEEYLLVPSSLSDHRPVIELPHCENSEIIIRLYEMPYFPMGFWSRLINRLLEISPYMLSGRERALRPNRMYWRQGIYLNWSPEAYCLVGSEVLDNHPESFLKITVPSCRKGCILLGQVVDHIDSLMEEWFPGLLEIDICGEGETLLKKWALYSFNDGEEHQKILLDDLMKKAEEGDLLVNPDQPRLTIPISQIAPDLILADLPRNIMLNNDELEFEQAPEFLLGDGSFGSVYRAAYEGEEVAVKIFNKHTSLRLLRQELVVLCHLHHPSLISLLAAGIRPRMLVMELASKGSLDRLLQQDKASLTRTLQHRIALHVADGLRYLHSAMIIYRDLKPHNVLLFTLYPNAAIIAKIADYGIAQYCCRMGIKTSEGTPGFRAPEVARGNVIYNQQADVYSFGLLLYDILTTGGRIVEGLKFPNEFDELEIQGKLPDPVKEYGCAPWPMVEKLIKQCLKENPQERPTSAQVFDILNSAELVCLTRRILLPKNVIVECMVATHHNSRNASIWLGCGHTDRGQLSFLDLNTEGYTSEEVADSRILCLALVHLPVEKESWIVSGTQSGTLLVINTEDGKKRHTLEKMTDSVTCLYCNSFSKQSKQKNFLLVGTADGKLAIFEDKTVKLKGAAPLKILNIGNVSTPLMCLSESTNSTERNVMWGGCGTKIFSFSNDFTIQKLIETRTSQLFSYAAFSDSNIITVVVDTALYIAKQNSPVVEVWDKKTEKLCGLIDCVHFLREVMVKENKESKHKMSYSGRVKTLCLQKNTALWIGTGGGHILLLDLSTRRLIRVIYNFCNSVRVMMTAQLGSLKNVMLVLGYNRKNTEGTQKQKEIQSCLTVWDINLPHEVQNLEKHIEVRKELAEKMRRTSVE

Usually IC50 stands for the midpoint of a concentration-inhibition curve. A high value points to lower potency. With `N#Cc1cccc(-c2c[nH]c3ncnc(N4CCOCC4)c23)c1`, the IC50 is 197 nM in data set [1] and 84 nM in data set [2].
For orientation: Kd means the concentration at which binding is half-saturated. For `Clc1cccc(-c2c[nH]c3nccc(N4CCOCC4)c23)c1`, the concentration at 0.5 h in data set [3] is greater than 1400 nM. For the same molecule, the Kd was 158 nM in data set [4] and 48 nM in data set [5]. The IC50 was 373 nM in data set [1]; 192 nM in [6]; 119 nM in data set [7]; 66 nM in [8]; 121 nM in data set [2]. Moreover, the Tm in data set [9] came to 63.6 °C. Further, the inhibition result in [10] is “Active”.
In turn, `CC1(O)CCN(c2ncnc3[nH]cc(-c4cccc(Cl)c4)c23)CC1` returned a concentration for half-maximal inhibition (IC50) in data set [7] of 189 nM.
For `CN(CCO)c1ncnc2[nH]cc(-c3cccc(Cl)c3)c12`, in [3], the concentration at 0.5 h is greater than 1400 nM. The IC50 in [1] worked out at 631 nM; in data set [6] it was 406 nM; in data set [7], 117 nM; in [8] it was 79 nM; in data set [2], 1520 nM.
`CNC1CCN(c2ncnc3[nH]cc(-c4cccc(Cl)c4)c23)CC1`: the concentration at 0.5 h in data set [3] is greater than 1400 nM. Besides, the IC50 in [2] came out at 3540 nM.
For the molecule `c1ccc(-c2c[nH]c3ncnc(N4CCOCC4)c23)cc1`, the IC50 in data set [7] amounted to 197 nM; in data set [8], 183 nM.
In general, Ki refers to the equilibrium dissociation constant of an inhibitor or competing ligand from its target. Low readings indicate a stronger hold on the target, high ones a looser hold on the target. In data set [3], `Clc1cccc(-c2c[nH]c3ncnc(N4CCOCC4)c23)c1` gave a concentration at 0.5 h greater than 1400 nM. In data set [11], this molecule displayed a Ki of 50 nM. Moreover, in data set [4], the Kd stood at 147 nM. The IC50 in data set [6] was 320 nM; in data set [8], 35 nM; in data set [2], 264 nM. The Tm in [9] was 63.8 °C.
In the case of `c1coc(-c2c[nH]c3ncnc(N4CCOCC4)c23)c1`, the IC50 in [7] was found to be 487 nM.
Molecule `Clc1cccc(-c2csc3ncnc(N4CCOCC4)c23)c1` showed an IC50 in [7] greater than 10000 nM.
In [3], `CC1(N)CCN(c2ncnc3[nH]cc(-c4cccc(Cl)c4)c23)CC1` showed a concentration at 0.5 h greater than 1400 nM. The same molecule yielded an IC50 in data set [7] of 278 nM.
In the case of `Cc1cccc(-c2c[nH]c3ncnc(N4CCOCC4)c23)c1`, the concentration at 0.5 h in data set [3] was greater than 1400 nM. Moreover, the IC50 in [1] was 434 nM; in data set [7], 121 nM; in [2] it was 127 nM.
`Fc1ccccc1-c1c[nH]c2ncnc(N3CCOCC3)c12` gave an IC50 in data set [7] of 558 nM.
For `Clc1cccc(-c2n[nH]c3ncnc(N4CCOCC4)c23)c1`, the concentration for half-maximal inhibition (IC50) in data set [7] stood at 4800 nM; in data set [8] it was 1610 nM.
`COc1cccc(-c2c[nH]c3ncnc(N4CCOCC4)c23)c1` gave an IC50 in data set [7] of 766 nM.
The molecule `Clc1cccc(-c2coc3ncnc(N4CCOCC4)c23)c1` gave an IC50 in data set [7] greater than 10000 nM.
`OCCCNc1ncnc2[nH]cc(-c3cccc(Cl)c3)c12` returned a concentration at 0.5 h in data set [3] greater than 1400 nM. The IC50 was determined as 668 nM in data set [1], 173 nM in [7] and 2490 nM in data set [2].
For the molecule `c1nc(N2CCOCC2)c2c(-c3ccoc3)c[nH]c2n1`, the IC50 in data set [7] came out at 986 nM.
For the molecule `CN(C)c1ncnc2[nH]cc(-c3cccc(Cl)c3)c12`, the IC50 in [7] came out at 349 nM.
Turning to `CN1C(=O)c2sccc2N(C)c2nc(Nc3ccc(S(N)(=O)=O)cc3)ncc21`, half-maximal inhibition in data set [6] (IC50) required 1040 nM.
In data set [7], `Cc1ccc(-c2c[nH]c3ncnc(N4CCOCC4)c23)cc1` showed a 50% inhibitory concentration (IC50) of 2020 nM. Further, in data set [10], the inhibition entry is “inactive”.
Molecule `Clc1cccc(-c2c[nH]c3ncnc(NCC4CC4)c23)c1` gave an IC50 in data set [7] of 213 nM.
For the molecule `Clc1cccc(-c2c[nH]c3ccnc(N4CCOCC4)c23)c1`, in [7], the IC50 is greater than 10000 nM.
In turn, `CCN(CCO)c1ncnc2[nH]cc(-c3cccc(Cl)c3)c12` had an IC50 in data set [7] of 226 nM.
Take `Fc1ccc(-c2c[nH]c3ncnc(N4CCOCC4)c23)cc1`: in data set [3], the concentration at 0.5 h was greater than 1400 nM. This molecule also had an IC50 in data set [7] of 766 nM.
Regarding `Cc1ccccc1-c1c[nH]c2ncnc(N3CCOCC3)c12`, the IC50 in data set [7] turned out to be 6900 nM; in data set [8], 2400 nM. For the same molecule, the inhibition entry in data set [10] is “inactive”.
As for `COc1ccccc1-c1c[nH]c2ncnc(N3CCOCC3)c12`, the IC50 in data set [7] was found to be 230 nM.
Take `CC(CO)CN(C)c1ncnc2[nH]cc(-c3cccc(Cl)c3)c12` (stereo not given): the concentration at 0.5 h in data set [3] is greater than 1400 nM. The IC50 in data set [1] came out at 289 nM; in data set [6], 444 nM; in data set [7], 58 nM; in data set [8] it was 38 nM; in data set [2], 7140 nM.
The term ΔTm denotes the shift of the melting midpoint relative to a reference. In [3], `Fc1cccc(-c2c[nH]c3ncnc(N4CCOCC4)c23)c1` registered a concentration at 0.5 h greater than 1400 nM. Moreover, the ΔTm in [12] is greater than 5.2 °C. Moreover, the IC50 in data set [1] amounted to 373 nM; in data set [7], 191 nM; in data set [2], 246 nM. The inhibition result in [10] was “Active”.
In data set [7], `c1csc(-c2c[nH]c3ncnc(N4CCOCC4)c23)c1` gave an IC50 of 267 nM.
Molecule `Clc1cccc(-c2c[nH]c3ncnc(N4CCCCC4)c23)c1` gave a concentration at 0.5 h in data set [3] greater than 1400 nM. Besides, the ΔTm in data set [12] was greater than 5.2 °C. The half-inhibitory concentration (IC50) was found to be 1100 nM in data set [1], 167 nM in data set [7] and 1140 nM in [2].

B1: Serine/threonine-protein kinase 4 (Homo sapiens), Q13043 (protein)
chain: T2 sequence (Q13043 whole entry)
As usually defined, the Km is the substrate concentration at which the rate is half of its maximum. Consider B1, for which, in data set [13], the Km is 140 µM.
